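48-hour exposure; five concentrations; linearly interpolated endpoints. Definition used: TGI = concentration required for complete inhibition of growth.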
Experiments:
Assay in all cases: DTP human tumour cell line panel, 48 h
ACHN renal = test system: ACHN renal
SF-539 CNS = test system: SF-539 CNS
OVCAR-8 ovarian = test system: OVCAR-8 ovarian
SN12C renal = test system: SN12C renal
SK-OV-3 ovarian = test system: SK-OV-3 ovarian
NCI/ADR-RES ovarian = test system: NCI/ADR-RES ovarian
HCC-2998 colon = test system: HCC-2998 colon
HCT-116 colon = test system: HCT-116 colon
UACC-62 melanoma = test system: UACC-62 melanoma
HCT-15 colon = test system: HCT-15 colon
SK-MEL-2 melanoma = test system: SK-MEL-2 melanoma
OVCAR-3 ovarian = test system: OVCAR-3 ovarian
SF-295 CNS = test system: SF-295 CNS
CCRF-CEM leukemia = test system: CCRF-CEM leukemia
NCI-H460 lung = test system: NCI-H460 lung
MALME-3M melanoma = test system: MALME-3M melanoma
U251 CNS = test system: U251 CNS
T-47D breast = test system: T-47D breast
BT-549 breast = test system: BT-549 breast
MCF7 breast = test system: MCF7 breast
HL-60(TB) leukemia = test system: HL-60(TB) leukemia
UACC-257 melanoma = test system: UACC-257 melanoma
RXF 393 renal = test system: RXF 393 renal
HS 578T breast = test system: HS 578T breast
786-0 renal = test system: 786-0 renal
A498 renal = test system: A498 renal
M14 melanoma = test system: M14 melanoma
K-562 leukemia = test system: K-562 leukemia
HOP-92 NSCLC = test system: HOP-92 NSCLC
LOX IMVI melanoma = test system: LOX IMVI melanoma
MDA-MB-231 breast = test system: MDA-MB-231 breast
MDA-N = test system: MDA-N
EKVX NSCLC = test system: EKVX NSCLC
HT29 colon = test system: HT29 colon
PC-3 prostate = test system: PC-3 prostate
A549 NSCLC = test system: A549 NSCLC
SNB-19 CNS = test system: SNB-19 CNS
SW-620 colon = test system: SW-620 colon
SK-MEL-28 melanoma = test system: SK-MEL-28 melanoma
MDA-MB-435 = test system: MDA-MB-435
RPMI-8226 leukemia = test system: RPMI-8226 leukemia
NCI-H226 lung = test system: NCI-H226 lung
SF-268 CNS = test system: SF-268 CNS
OVCAR-4 ovarian = test system: OVCAR-4 ovarian
SNB-75 CNS = test system: SNB-75 CNS
DU-145 prostate = test system: DU-145 prostate
COLO 205 colon = test system: COLO 205 colon
HOP-62 NSCLC = test system: HOP-62 NSCLC
SK-MEL-5 melanoma = test system: SK-MEL-5 melanoma
SR leukemia = test system: SR leukemia
KM12 colon = test system: KM12 colon
TK-10 renal = test system: TK-10 renal
CAKI-1 renal = test system: CAKI-1 renal
MOLT-4 leukemia = test system: MOLT-4 leukemia
OVCAR-5 ovarian = test system: OVCAR-5 ovarian
NCI-H522 lung = test system: NCI-H522 lung
NCI-H23 lung = test system: NCI-H23 lung
IGROV1 ovarian = test system: IGROV1 ovarian
UO-31 renal = test system: UO-31 renal
LXFL 529 NSCLC = test system: LXFL 529 NSCLC
SNB-78 CNS = test system: SNB-78 CNS
DMS 114 small cell lung = test system: DMS 114 small cell lung
XF 498 CNS = test system: XF 498 CNS
KM20L2 colon = test system: KM20L2 colon
M19-MEL melanoma = test system: M19-MEL melanoma
DLD-1 colon = test system: DLD-1 colon
DMS 273 small cell lung = test system: DMS 273 small cell lung
HOP-18 NSCLC = test system: HOP-18 NSCLC

In the case of COc1cc2oc(-c3ccc(O)cc3)c(OC3OC(C)C(O)C(O)C3O)c(=O)c2c(O)c1OC (stereo not drawn), the TGI (ACHN renal) is reported as > 100 µM, the TGI (SF-539 CNS) is reported as > 100 µM and the TGI (OVCAR-8 ovarian) is reported as > 100 µM. For the same compound, the TGI (SN12C renal) was > 100 µM, the TGI (SK-OV-3 ovarian) was > 100 µM and the TGI (NCI/ADR-RES ovarian) was > 100 µM. For the same compound, the TGI (HCC-2998 colon) was > 100 µM, the TGI (HCT-116 colon) was > 100 µM and the TGI (UACC-62 melanoma) was > 100 µM. The TGI (HCT-15 colon) was > 100 µM, the TGI (SK-MEL-2 melanoma) was > 100 µM and the TGI (OVCAR-3 ovarian) was > 100 µM. The TGI (SF-295 CNS) was > 100 µM, the TGI (CCRF-CEM leukemia) was > 100 µM and the TGI (NCI-H460 lung) was > 100 µM. The TGI (MALME-3M melanoma) was > 100 µM, the TGI (U251 CNS) was > 100 µM and the TGI (T-47D breast) was > 100 µM. The TGI (BT-549 breast) was > 100 µM, the TGI (MCF7 breast) was > 100 µM and the TGI (HL-60(TB) leukemia) was > 100 µM. The TGI (UACC-257 melanoma) was > 100 µM, the TGI (RXF 393 renal) was > 100 µM and the TGI (HS 578T breast) was > 100 µM. The TGI (786-0 renal) was > 100 µM, the TGI (A498 renal) was > 100 µM and the TGI (M14 melanoma) was > 100 µM. For the same compound, the TGI (K-562 leukemia) was > 100 µM, the TGI (HOP-92 NSCLC) was > 100 µM and the TGI (LOX IMVI melanoma) was > 100 µM. For the same compound, the TGI (MDA-MB-231 breast) was > 100 µM, the TGI (MDA-N) was > 100 µM and the TGI (EKVX NSCLC) was > 100 µM. For the same compound, the TGI (HT29 colon) was > 100 µM, the TGI (PC-3 prostate) was > 100 µM and the TGI (A549 NSCLC) was > 100 µM. The TGI (SNB-19 CNS) was > 100 µM, the TGI (SW-620 colon) was > 100 µM and the TGI (SK-MEL-28 melanoma) was > 100 µM. The TGI (MDA-MB-435) was > 100 µM, the TGI (RPMI-8226 leukemia) was > 100 µM and the TGI (NCI-H226 lung) was > 100 µM. For the same compound, the TGI (SF-268 CNS) was > 100 µM, the TGI (OVCAR-4 ovarian) was > 100 µM and the TGI (SNB-75 CNS) was > 100 µM. The TGI (DU-145 prostate) was > 100 µM, the TGI (COLO 205 colon) was > 100 µM and the TGI (HOP-62 NSCLC) was > 100 µM. The TGI (SK-MEL-5 melanoma) was > 100 µM, the TGI (SR leukemia) was > 100 µM and the TGI (KM12 colon) was > 100 µM. The TGI (TK-10 renal) was > 100 µM, the TGI (CAKI-1 renal) was > 100 µM and the TGI (MOLT-4 leukemia) was > 100 µM. The TGI (OVCAR-5 ovarian) was > 100 µM, the TGI (NCI-H522 lung) was > 100 µM and the TGI (NCI-H23 lung) was > 100 µM. For the same compound, the TGI (IGROV1 ovarian) was > 100 µM.
For O=C(O)c1ccc(NC(c2ccccc2)c2ccc3cccnc3c2O)cc1 (stereo not drawn), the TGI (ACHN renal) was > 100 µM, the TGI (SF-539 CNS) was 25.9 µM and the TGI (OVCAR-8 ovarian) was > 41.5 µM. The TGI (SN12C renal) was > 54.1 µM, the TGI (SK-OV-3 ovarian) was > 100 µM and the TGI (NCI/ADR-RES ovarian) was > 45.3 µM. For the same compound, the TGI (HCC-2998 colon) was > 74.8 µM, the TGI (HCT-116 colon) was > 100 µM and the TGI (UACC-62 melanoma) was 36.7 µM. The TGI (HCT-15 colon) was > 100 µM, the TGI (SK-MEL-2 melanoma) was > 100 µM and the TGI (OVCAR-3 ovarian) was 14.2 µM. The TGI (SF-295 CNS) was > 100 µM, the TGI (CCRF-CEM leukemia) was 6.05 µM and the TGI (NCI-H460 lung) was > 48.5 µM. The TGI (MALME-3M melanoma) was > 100 µM, the TGI (U251 CNS) was > 41.2 µM and the TGI (T-47D breast) was 50.1 µM. The TGI (BT-549 breast) was > 74 µM, the TGI (MCF7 breast) was > 80.7 µM and the TGI (HL-60(TB) leukemia) was 10.4 µM. For the same compound, the TGI (UACC-257 melanoma) was 46.2 µM, the TGI (RXF 393 renal) was 28.8 µM and the TGI (HS 578T breast) was > 73.7 µM. The TGI (786-0 renal) was > 76.6 µM, the TGI (A498 renal) was 78.4 µM and the TGI (M14 melanoma) was > 85.5 µM. The TGI (K-562 leukemia) was > 49.8 µM, the TGI (UO-31 renal) was 34.6 µM and the TGI (HOP-92 NSCLC) was > 100 µM. For the same compound, the TGI (LOX IMVI melanoma) was > 57.6 µM, the TGI (MDA-MB-231 breast) was > 61.4 µM and the TGI (MDA-N) was > 100 µM. For the same compound, the TGI (EKVX NSCLC) was > 85.6 µM, the TGI (HT29 colon) was > 100 µM and the TGI (PC-3 prostate) was > 96 µM. For the same compound, the TGI (A549 NSCLC) was > 100 µM, the TGI (SNB-19 CNS) was > 100 µM and the TGI (SW-620 colon) was > 55.8 µM. The TGI (SK-MEL-28 melanoma) was > 100 µM, the TGI (MDA-MB-435) was > 100 µM and the TGI (RPMI-8226 leukemia) was 28 µM. The TGI (NCI-H226 lung) was > 31 µM, the TGI (SF-268 CNS) was > 100 µM and the TGI (OVCAR-4 ovarian) was 36.6 µM. The TGI (SNB-75 CNS) was 56.7 µM, the TGI (DU-145 prostate) was > 100 µM and the TGI (COLO 205 colon) was > 86.9 µM. The TGI (HOP-62 NSCLC) was > 100 µM, the TGI (SK-MEL-5 melanoma) was 29.8 µM and the TGI (SR leukemia) was > 100 µM. The TGI (KM12 colon) was > 100 µM, the TGI (TK-10 renal) was 71.6 µM and the TGI (CAKI-1 renal) was 59.2 µM. The TGI (MOLT-4 leukemia) was > 42.6 µM, the TGI (OVCAR-5 ovarian) was > 100 µM and the TGI (NCI-H522 lung) was 55.8 µM. The TGI (NCI-H23 lung) was > 100 µM and the TGI (IGROV1 ovarian) was > 95.8 µM.
With O=c1[nH]c2ccccc2cc1C(Cl)=C(Cl)Cl the TGI (LXFL 529 NSCLC) was > 100 µM, the TGI (ACHN renal) was > 100 µM and the TGI (SF-539 CNS) was > 100 µM. For the same compound, the TGI (OVCAR-8 ovarian) was > 100 µM, the TGI (SN12C renal) was > 100 µM and the TGI (SNB-78 CNS) was > 100 µM. For the same compound, the TGI (SK-OV-3 ovarian) was > 100 µM, the TGI (HCC-2998 colon) was > 100 µM and the TGI (HCT-116 colon) was > 100 µM. For the same compound, the TGI (UACC-62 melanoma) was > 100 µM, the TGI (SK-MEL-2 melanoma) was > 100 µM and the TGI (OVCAR-3 ovarian) was > 100 µM. For the same compound, the TGI (SF-295 CNS) was > 100 µM, the TGI (CCRF-CEM leukemia) was > 100 µM and the TGI (NCI-H460 lung) was > 100 µM. For the same compound, the TGI (MALME-3M melanoma) was > 100 µM, the TGI (U251 CNS) was > 100 µM and the TGI (HL-60(TB) leukemia) was > 100 µM. For the same compound, the TGI (UACC-257 melanoma) was > 100 µM, the TGI (RXF 393 renal) was > 100 µM and the TGI (DMS 114 small cell lung) was > 100 µM. The TGI (XF 498 CNS) was > 100 µM, the TGI (786-0 renal) was > 100 µM and the TGI (A498 renal) was > 100 µM. For the same compound, the TGI (M14 melanoma) was > 100 µM, the TGI (K-562 leukemia) was > 100 µM and the TGI (UO-31 renal) was > 100 µM. The TGI (HOP-92 NSCLC) was > 100 µM, the TGI (LOX IMVI melanoma) was > 100 µM and the TGI (KM20L2 colon) was > 100 µM. For the same compound, the TGI (M19-MEL melanoma) was > 100 µM, the TGI (EKVX NSCLC) was > 100 µM and the TGI (HT29 colon) was > 100 µM. The TGI (DLD-1 colon) was > 100 µM, the TGI (A549 NSCLC) was > 100 µM and the TGI (SNB-19 CNS) was > 100 µM. The TGI (SW-620 colon) was > 100 µM, the TGI (SK-MEL-28 melanoma) was > 100 µM and the TGI (RPMI-8226 leukemia) was > 100 µM. For the same compound, the TGI (NCI-H226 lung) was > 100 µM, the TGI (SF-268 CNS) was > 100 µM and the TGI (OVCAR-4 ovarian) was > 100 µM. For the same compound, the TGI (SNB-75 CNS) was > 100 µM, the TGI (COLO 205 colon) was > 100 µM and the TGI (HOP-62 NSCLC) was > 100 µM. The TGI (SR leukemia) was > 100 µM, the TGI (KM12 colon) was > 100 µM and the TGI (TK-10 renal) was > 100 µM. The TGI (CAKI-1 renal) was > 100 µM, the TGI (MOLT-4 leukemia) was > 100 µM and the TGI (DMS 273 small cell lung) was > 100 µM. The TGI (OVCAR-5 ovarian) was > 100 µM, the TGI (NCI-H522 lung) was > 100 µM and the TGI (HOP-18 NSCLC) was > 100 µM. For the same compound, the TGI (NCI-H23 lung) was > 100 µM and the TGI (IGROV1 ovarian) was > 100 µM.

Reference: PubChem BioAssay (NCI)
